Measured values as given in US4001272A, “Herbicidal 2-fluoro-4-halo-phenyl-4,5,6,7-tetrahydro-2H-isoindole-1,3-diones” (E. I. Du Pont de Nemours and Company, priority 1974, dated 1977).

Assays:
Format in all cases: in vivo
[1] = system: barnyardgrass (Echinochloa crusgalli); test: Test A: field test, percent weed control of barnyardgrass; details: seven weeks after treatment
Description: (§1) In test A, soybeans, peanuts, lima beans, green beans and squash were planted in a field infested with the following weed seeds: crabgrass (Digitaria sanquinalis), foxtails (Setaria spp.), barnyardgrass (Echinochloa crusgalli), pigweed (Amaranthus spp.), ragweed (Ambrosia artemisiifolia), velvetleaf (Abutilon theophrasti), purslane (Portulaca oleracea) and flower-of-an-hour (Hibiscus trionum). A 50% wettable powder formulation of 2-(4-chloro-2-fluorophenyl)-4,5,6,7-tetrahydro-2H-isoindole-1,3-dione was applied in the form of an aqueous suspension at rates of 0.125, 0.25, 0.5 and 1.0 kg/ha, each treatment replicated twice. The plots were rated for percent weed control and crop response seven weeks after treatment. Crop response was expressed on a scale of 0 = no injury to 10 = complete kill.

[2] = system: ragweed (Ambrosia artemisiifolia); test: Test A: field test, percent weed control of ragweed; details: seven weeks after treatment
Description: as §1

[3] = system: lima beans; test: Test A: field test, crop response of lima beans; details: seven weeks, 0 = no injury to 10 = complete kill
Description: as §1

[4] = system: pigweed (Amaranthus spp.); test: Test A: field test, percent weed control of pigweed; details: seven weeks after treatment
Description: as §1

[5] = system: green beans; test: Test A: field test, crop response of green beans; details: seven weeks, 0 = no injury to 10 = complete kill
Description: as §1

[6] = system: crabgrass (Digitaria sanquinalis); test: Test A: field test, percent weed control of crabgrass; details: seven weeks after treatment
Description: as §1

[7] = system: flower-of-an-hour (Hibiscus trionum); test: Test A: field test, percent weed control of flower-of-an-hour; details: seven weeks after treatment
Description: as §1

[8] = system: carrots; test: Test B: overall spray in carrot field after weed emergence, crop response of carrots; details: six weeks after treatment, 0.1% Tween 20
Description: Test B involved a field sown to carrots and in which the following weed species emerged naturally: crabgrass (Digitaria sanquinalis), foxtails (Setaria spp.), barnyardgrass (Echinochloa crusgalli), pigweed (Amaranthus spp.), ragweed (Ambrosia artemisiifolia), velvetleaf (Abutilon theophrasti), smartweed (Polygonum spp.) and lambsquarters (Chenopodium album). Sixteen days after sowing, when all species of weeds had emerged, the plants were sprayed overall with a 50% wettable powder formulation of 2-(4-chloro-2-fluorophenyl)4,5,6,7-tetrahydro-2H-isoindole-1,3dione (Treatment I) in the form of an aqueous suspension, at rates of 0.5, 1.0, 2.0 and 4.0 kg/ha, and with 2-(4-chlorophenyl)-4,5,6,7-tetrahydro-2H-isoindole-1,3-dione (Treatment II) in the same form and at the same rates. The spray volume was 425 l/ha. The surfactant Tween 20* was added to all treatments in a concentration of 0.1% by weight. Six weeks after treatment, visual observations were made of percent weed control obtained and, for carrots, crop response.
*Tween 20 -- A trademark of ICI of America which is the reaction product of sorbitan monolaurate with an average of 20 moles of ethylene oxide.

O=C1C2=C(CCCC2)C(=O)N1c1ccc(Cl)cc1F [Treatment I, 2-(4-chloro-2-fluorophenyl)-4,5,6,7-tetrahydro-2H-isoindole-1,3-dione]
% Control, Barnyardgrass ([1]; 0.125 kg/ha): 45% | % Control, Barnyardgrass ([1]; 0.25 kg/ha): 82% | % Control, Barnyardgrass ([1]; 0.50 kg/ha): 98% | % Control, Barnyardgrass ([1]; 1.00 kg/ha): 99% | % Control, Ragweed ([2]; 0.125 kg/ha): 90% | % Control, Ragweed ([2]; 0.25 kg/ha): 99% | % Control, Ragweed ([2]; 0.50 kg/ha): 99% | % Control, Ragweed ([2]; 1.00 kg/ha): 100% | Crop Response, Lima beans ([3]; 0.125 kg/ha): 0 | Crop Response, Lima beans ([3]; 0.25 kg/ha): 1 | Crop Response, Lima beans ([3]; 0.50 kg/ha): 4 | Crop Response, Lima beans ([3]; 1.00 kg/ha): 8.5 | % Control, Pigweed ([4]; 0.125 kg/ha): 90% | % Control, Pigweed ([4]; 0.25 kg/ha): 98% | % Control, Pigweed ([4]; 0.50 kg/ha): 95% | % Control, Pigweed ([4]; 1.00 kg/ha): 100% | Crop Response, Green beans ([5]; 0.125 kg/ha): 2 | Crop Response, Green beans ([5]; 0.25 kg/ha): 2.5 | Crop Response, Green beans ([5]; 0.50 kg/ha): 8 | Crop Response, Green beans ([5]; 1.00 kg/ha): 8.5 | % Control, Crabgrass ([6]; 0.125 kg/ha): 60% | % Control, Crabgrass ([6]; 0.25 kg/ha): 94% | % Control, Crabgrass ([6]; 0.50 kg/ha): 99% | % Control, Crabgrass ([6]; 1.00 kg/ha): 99% | % Control, Flower-of-an-Hour ([7]; 0.125 kg/ha): 87% | % Control, Flower-of-an-Hour ([7]; 0.25 kg/ha): 99% | % Control, Flower-of-an-Hour ([7]; 0.50 kg/ha): 99% | % Control, Flower-of-an-Hour ([7]; 1.00 kg/ha): 100%

O=C1C2=C(CCCC2)C(=O)N1c1ccc(Cl)cc1 [Treatment II, 2-(4-chlorophenyl)-4,5,6,7-tetrahydro-2H-isoindole-1,3-dione]
Crop Response, Carrots ([8]; 0.5 kg/ha): 4 | Crop Response, Carrots ([8]; 1.0 kg/ha): 4 | Crop Response, Carrots ([8]; 2.0 kg/ha): 4 | Crop Response, Carrots ([8]; 4.0 kg/ha): 4
